Literature values in patent US10952981B2, “Liquid pharmaceutical compositions of baclofen for oral administration” (SLAYBACK PHARMA LLC, priority 2019, dated 2021).

Concentration of baclofen obtainable (aqueous 0.1N HCl or 0.1N NaOH, Ahuja (1985)): greater than 20 mg/mL
Equilibrium concentration (as referred to for Allen et al., 1996, Johnson and Hart, 1993): 4.3 mg/mL
Solubility at near neutral pH (at a concentration of 2 mg/mL, near neutral pH): not soluble
Solubility in chloroform (chloroform): insoluble
Solubility in methanol (methanol): very slightly soluble
Solubility in water (water): slightly soluble
SMILES: NCC(CC(=O)O)c1ccc(Cl)cc1 (stereo not drawn) [Baclofen, 4-amino-3-(4-chlorophenyl)-butanoic acid]
